The text below walks through data of patent US20110189169A1, “COMBINATION OF HGF INHIBITOR AND PTEN AGONIST TO TREAT CANCER” (GALAXY BIOTECH, LLC, priority 2008, published 2011).

The term Kd denotes the constant that tells how readily two partners part at equilibrium.

One series has as its system U-87 MG cells. In words: Subcutaneous human glioblastoma U-87 MG tumor xenograft model. In kind it is in vivo, athymic nude mice (BALB/c-nu/nu). The settings on record: HuL2G7 0.5 mg/kg i.v. days 12 and 18. The method, then: The combination effect of HuL2G7 with Rapamycin was examined in human glioblastoma U-87 MG tumor xenograft model. Female athymic nude mice (BALB/c-nu/nu, 30 animals) were purchased from Charles River Laboratories (Kanagawa, Japan). Mice were housed in a barrier facility with 12-h light/dark cycles and provided with food and tap water ad libitum and maintained for three weeks. U-87 MG cells (2.5×10^6 in 100 μL) were suspended with 50% Matrigel (BD Biosciences) buffered with Hanks. balanced salt solution (Invitrogen Corp, Carlsbad, Calif., USA) and inoculated subcutaneously into the right-flank of each mouse. After the tumor xenografts were established, at day 12 after inoculation, mice with tumors (approximately 95-272 mm^3) were randomized into groups of 4 (n=6) based on tumor volumes so as to minimize variation in tumor volumes. Then each group was treated with vehicle, HuL2G7, Rapamycin, or both drugs. […] Tumor volumes were assessed by bilateral vernier caliper measurement at days 12, 15, 18, 22, and 26 after inoculation and calculated using the formula, length×width^2×½, where length was taken to be the longest diameter across the tumor and width the corresponding perpendicular. Tumor growth was evaluated by the following formula: T/C (%)=ΔT/ΔC×100, where ΔT and ΔC are changes in tumor volume for each treated and vehicle control group. […]
In general terms: A xenograft is tissue or cells of one species grown in another, often human tumour cells in immunodeficient mice.

A further series addresses cMet receptor (Homo sapiens, UniProt P08581). The settings on record: read-out: Kd, high affinity binding site; cited from earlier work.
Series [1] addresses heparin sulfate proteoglycans (HSPG). The settings on record: read-out: Kd, low affinity binding site; cited from earlier work.

Sequence of cMet receptor (P08581 25-1390): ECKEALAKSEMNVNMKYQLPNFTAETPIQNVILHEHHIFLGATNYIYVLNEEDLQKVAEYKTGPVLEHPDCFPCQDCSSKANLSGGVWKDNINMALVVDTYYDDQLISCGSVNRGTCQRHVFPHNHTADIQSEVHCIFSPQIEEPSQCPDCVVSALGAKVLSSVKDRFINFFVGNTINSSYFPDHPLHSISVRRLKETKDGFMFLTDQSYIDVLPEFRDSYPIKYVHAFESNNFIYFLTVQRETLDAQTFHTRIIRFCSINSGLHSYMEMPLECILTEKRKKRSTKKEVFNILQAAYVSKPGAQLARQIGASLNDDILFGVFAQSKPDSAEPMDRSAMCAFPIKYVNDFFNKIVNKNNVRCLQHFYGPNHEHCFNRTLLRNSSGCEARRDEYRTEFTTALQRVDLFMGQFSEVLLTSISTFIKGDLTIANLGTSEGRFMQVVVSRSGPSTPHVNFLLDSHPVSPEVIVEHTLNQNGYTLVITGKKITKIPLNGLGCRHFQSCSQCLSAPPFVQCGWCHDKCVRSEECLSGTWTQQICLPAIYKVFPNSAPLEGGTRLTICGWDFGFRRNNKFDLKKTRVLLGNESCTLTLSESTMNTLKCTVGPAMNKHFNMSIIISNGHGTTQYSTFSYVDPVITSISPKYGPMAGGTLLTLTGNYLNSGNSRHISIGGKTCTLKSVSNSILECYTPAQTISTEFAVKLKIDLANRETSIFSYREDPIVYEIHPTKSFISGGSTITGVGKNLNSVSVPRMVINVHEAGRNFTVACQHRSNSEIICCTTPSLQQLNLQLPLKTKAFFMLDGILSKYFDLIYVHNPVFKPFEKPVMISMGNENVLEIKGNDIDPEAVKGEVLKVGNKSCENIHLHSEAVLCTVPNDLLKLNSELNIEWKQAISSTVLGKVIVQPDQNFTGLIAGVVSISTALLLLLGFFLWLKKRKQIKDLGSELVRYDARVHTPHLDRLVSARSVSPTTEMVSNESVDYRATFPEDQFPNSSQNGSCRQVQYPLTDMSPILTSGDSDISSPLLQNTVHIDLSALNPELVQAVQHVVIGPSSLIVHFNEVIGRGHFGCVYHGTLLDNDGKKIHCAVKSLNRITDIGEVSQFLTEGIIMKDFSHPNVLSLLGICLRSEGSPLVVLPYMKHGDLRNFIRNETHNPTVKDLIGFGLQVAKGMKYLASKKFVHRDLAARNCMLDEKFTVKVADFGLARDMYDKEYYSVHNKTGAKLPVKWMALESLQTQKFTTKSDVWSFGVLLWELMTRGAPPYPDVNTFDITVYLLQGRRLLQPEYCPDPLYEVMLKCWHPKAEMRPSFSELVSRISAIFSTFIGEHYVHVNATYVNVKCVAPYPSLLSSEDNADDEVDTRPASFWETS

On to `CO[C@H]1C[C@@H]2CC[C@@H](C)[C@@](O)(O2)C(=O)C(=O)N2CCCC[C@H]2C(=O)O[C@H]([C@H](C)C[C@@H]2CC[C@@H](O)[C@H](OC)C2)CC(=O)[C@H](C)/C=C(\C)[C@@H](O)[C@@H](OC)C(=O)[C@H](C)C[C@H](C)/C=C/C=C/C=C/1C` [rapamycin, reference compound], for which, in the series on U-87 MG cells (Rapamycin 0.1 mg/kg i.p. days 12-26, or both), the “general observations of animals” value is “no abnormalities in general observations”. Also, in the series with U-87 MG cells (day 26, Rapamycin 0.1 mg/kg i.p. once-daily days 12-26), the “T/C (%)=ΔT/ΔC×100” value is given as 9.6%.
With “HGF: Human Hepatocyte Growth Factor, 102 kDa heterodimeric polypeptide, ligand of cMet”, the Kd in the series with cMet receptor is 0.2 nM; in series [1], 1 nM.
